Experimental data taken from patent publication US20250320213A1, “Nitrogen-Containing Heterocyclic Compounds” (Pfizer Inc., priority 2024, published 2025).

How the values were obtained:
[1] = target: T1, STAT6 (Homo sapiens, UniProt P42226); test: STAT6 Reporter Luciferase Assay (IL-13 stimulated HaCaT keratinocyte NanoLuc reporter cells); format: cell-based; details: STAT6 NanoLuc luciferase reporter, IL-13 stimulated HaCaT keratinocyte cells; read-out: Reporter EC50
T1 construct: stably transfected HaCaT keratinocyte cell line, which expresses NanoLuc luciferase reporter gene under the transcriptional control of the STAT6 responsive promoter; endogenous in cells; host or cells: HaCaT keratinocyte reporter cell line (stably transfected with a NanoLuc reporter)
T1 sequence (P42226 1-847): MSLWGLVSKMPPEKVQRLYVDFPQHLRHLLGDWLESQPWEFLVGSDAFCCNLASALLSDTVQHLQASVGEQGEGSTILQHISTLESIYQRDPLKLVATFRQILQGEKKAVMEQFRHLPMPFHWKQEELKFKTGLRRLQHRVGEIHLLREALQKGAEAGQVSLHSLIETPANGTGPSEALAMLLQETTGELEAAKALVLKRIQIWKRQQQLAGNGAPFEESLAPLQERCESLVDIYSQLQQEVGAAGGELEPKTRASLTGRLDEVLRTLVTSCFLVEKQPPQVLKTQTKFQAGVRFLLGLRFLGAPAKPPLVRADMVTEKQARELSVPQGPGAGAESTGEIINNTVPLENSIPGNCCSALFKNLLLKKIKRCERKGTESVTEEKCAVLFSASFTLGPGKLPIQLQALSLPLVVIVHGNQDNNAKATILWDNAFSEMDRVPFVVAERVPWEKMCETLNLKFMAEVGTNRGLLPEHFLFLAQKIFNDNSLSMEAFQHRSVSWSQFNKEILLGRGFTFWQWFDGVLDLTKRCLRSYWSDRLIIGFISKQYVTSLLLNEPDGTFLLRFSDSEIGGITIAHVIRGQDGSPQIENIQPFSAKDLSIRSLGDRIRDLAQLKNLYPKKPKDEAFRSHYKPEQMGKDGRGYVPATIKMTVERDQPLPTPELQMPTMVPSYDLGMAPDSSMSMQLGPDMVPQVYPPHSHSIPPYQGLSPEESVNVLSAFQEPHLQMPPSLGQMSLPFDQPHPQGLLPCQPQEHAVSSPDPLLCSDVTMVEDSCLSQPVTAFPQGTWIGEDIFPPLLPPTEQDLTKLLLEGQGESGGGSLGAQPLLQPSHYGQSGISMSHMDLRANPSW
In short: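 Luminescence from a NanoLuc reporter driven by the STAT6-responsive IL-13Ra2 promoter in HaCaT keratinocytes serves as the read-out. Compounds are given 2 h before a 4 h stimulation with 0.12 nM IL-13.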

[2] = system: CCL17 secretion in peripheral human whole blood; test: Human Whole Blood (HWB) CCL17 TR-FRET Assay (IL-13 stimulated CCL17 secretion); format: cell-based; details: inhibition of CCL17 secretion in human whole blood, 10 ng/mL IL13, 48 hours
In short: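 IC50 comes from serum CCL17 measured by a TR-FRET sandwich assay (16 h at room temperature, 665/615 nm ratio). Beforehand, blood in sodium heparin was exposed to an 11-point, 3-fold compound series for 2 h at 37°C and then to 10 ng/mL IL-13 for 48 h.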

With CC(C)n1nc(C(=O)NCc2ccc(NC(=O)N(C)C)cc2)c2c1CCN(c1ccc(N3CCOCCC3=O)cn1)C2 [Example 100, N-(4-(3,3-dimethylureido)benzyl)-1-isopropyl-5-(5-(5-oxo-1,4-oxazepan-4-yl)pyridin-2-yl)-4,5,6,7-tetrahydro-1H-pyrazolo[4,3-c]pyridine-3-carboxamide] the EC50 [1] was 174 nM and the IC50 ([2]; Homo sapiens, 48 h) was 1800 nM.

With CC(C)n1nc(C(=O)NCc2ccc(NC(=O)N(C)C)cc2)c2c1CCN(c1ccc(N3CCOCC3=O)cn1)C2 [Example 103, N-(4-(3,3-dimethylureido)benzyl)-1-isopropyl-5-(5-(3-oxomorpholino)pyridin-2-yl)-4,5,6,7-tetrahydro-1H-pyrazolo[4,3-c]pyridine-3-carboxamide] the EC50 [1] was 47 nM and the IC50 ([2]; Homo sapiens, 48 h) was 535 nM.

Compound CN(C)C(=O)Nc1ccc(CNC(=O)c2nn(C34CC(C3)C4)c3c2CN(c2ccc(C(=O)N(C)C)cn2)CC3)cc1 [Example 104, 1-(bicyclo[1.1.1]pentan-1-yl)-5-(5-(dimethylcarbamoyl)pyridin-2-yl)-N-(4-(3,3-dimethylureido)benzyl)-4,5,6,7-tetrahydro-1H-pyrazolo[4,3-c]pyridine-3-carboxamide] has an EC50 [1] of 7 nM and an IC50 ([2]; Homo sapiens, 48 h) of 107 nM.

Work on CN(C)C(=O)Nc1ccc(CNC(=O)c2nn(C)c3c2CN(c2ccc(C(=O)N(C)C)cn2)CC3(C)C)cc1 [Example 105, 5-(5-(dimethylcarbamoyl)pyridin-2-yl)-N-(4-(3,3-dimethylureido)benzyl)-1,7,7-trimethyl-4,5,6,7-tetrahydro-1H-pyrazolo[4,3-c]pyridine-3-carboxamide] yielded an EC50 [1] of 3 nM and an IC50 ([2]; Homo sapiens, 48 h) of 21 nM.

Compound CN(C)C(=O)Nc1ccc(CNC(=O)c2nn(C)c3c2CN(c2ccc(C(=O)N(C)C)cn2)CC32CC2)cc1 [Example 106, 5′-(5-(dimethylcarbamoyl)pyridin-2-yl)-N-(4-(3,3-dimethylureido)benzyl)-1′-methyl-1′,4′,5′,6′-tetrahydrospiro[cyclopropane-1,7′-pyrazolo[4,3-c]pyridine]-3′-carboxamide] has an EC50 [1] of 8 nM and an IC50 ([2]; Homo sapiens, 48 h) of 49 nM.

For CC(C)n1nc(C(=O)NCc2ccc(NC(=O)N(C)C)cc2)c2c1CCN(c1ccc(N3CCOC3=O)cn1)C2 [Example 107, N-(4-(3,3-dimethylureido)benzyl)-1-isopropyl-5-(5-(2-oxooxazolidin-3-yl)pyridin-2-yl)-4,5,6,7-tetrahydro-1H-pyrazolo[4,3-c]pyridine-3-carboxamide], the EC50 [1] was 13 nM and the IC50 ([2]; Homo sapiens, 48 h) was 219 nM.

CC(C)n1nc(C(=O)NCc2ccc(NC(=O)N(C)C)cc2)c2c1CCN(c1ccc(-n3ccccc3=O)cn1)C2 [Example 108, N-(4-(3,3-dimethylureido)benzyl)-1-isopropyl-5-(2-oxo-2H-[1,3′-bipyridin]-6′-yl)-4,5,6,7-tetrahydro-1H-pyrazolo[4,3-c]pyridine-3-carboxamide] gave an EC50 [1] of 30 nM and an IC50 ([2]; Homo sapiens, 48 h) of 536 nM.

For CC(C)n1nc(C(=O)NCc2ccc(NC(=O)N(C)C)cc2)c2c1CCN(c1ccc(N3C(=O)C4CCC3C4)cn1)C2 (stereo not shown) [Example 109, N-(4-(3,3-dimethylureido)benzyl)-1-isopropyl-5-(5-(3-oxo-2-azabicyclo[2.2.1]heptan-2-yl)pyridin-2-yl)-4,5,6,7-tetrahydro-1H-pyrazolo[4,3-c]pyridine-3-carboxamide], the EC50 [1] was 117 nM and the IC50 ([2]; Homo sapiens, 48 h) was greater than 30000 nM.

CC(C)n1nc(C(=O)NCc2ccc(NC(=O)N(C)C)cc2)c2c1CCN(c1ccc(N3C(=O)OCC3CO)cn1)C2 (stereo not shown) [Example 110, N-(4-(3,3-dimethylureido)benzyl)-5-(5-(4-(hydroxymethyl)-2-oxooxazolidin-3-yl)pyridin-2-yl)-1-isopropyl-4,5,6,7-tetrahydro-1H-pyrazolo[4,3-c]pyridine-3-carboxamide] showed an EC50 [1] of 523 nM and an IC50 ([2]; Homo sapiens, 48 h) of 2090 nM.

CC(C)n1nc(C(=O)NCc2ccc(NC(=O)N(C)C)cc2)c2c1C[C@@H](C)N(c1ccc(C(=O)N(C)C)cn1)C2 [Example 114, (R)-5-(5-(dimethylcarbamoyl)pyridin-2-yl)-N-(4-(3,3-dimethylureido)benzyl)-1-isopropyl-6-methyl-4,5,6,7-tetrahydro-1H-pyrazolo[4,3-c]pyridine-3-carboxamide] was tested, and the EC50 [1] was 20 nM and the IC50 ([2]; Homo sapiens, 48 h) was 211 nM.

C[C@H]1CN(c2ncc(C(=O)N(C)C)cn2)Cc2c(C(=O)NCc3ccc(NC(=O)N(C)C)cc3)nn(CC3CC3)c21 [Example 120, (S)-1-(cyclopropylmethyl)-5-(5-(dimethylcarbamoyl)pyrimidin-2-yl)-N-(4-(3,3-dimethylureido)benzyl)-7-methyl-4,5,6,7-tetrahydro-1H-pyrazolo[4,3-c]pyridine-3-carboxamide] showed an EC50 [1] of 1 nM and an IC50 ([2]; Homo sapiens, 48 h) of 4 nM.

With CCn1nc(C(=O)NCc2ccc(NC(=O)N(C)C)cc2)c2c1[C@@H](C)CN(c1ncc(C(=O)N(C)C)cn1)C2 [Example 125, (S)-5-(5-(Dimethylcarbamoyl)pyrimidin-2-yl)-N-(4-(3,3-dimethylureido)benzyl)-1-ethyl-7-methyl-4,5,6,7-tetrahydro-1H-pyrazolo[4,3-c]pyridine-3-carboxamide] the EC50 [1] was 1 nM and the IC50 ([2]; Homo sapiens, 48 h) was 4 nM.

In the case of CCn1nc(C(=O)NCc2ccc(NC(=O)N(C)C)cc2)c2c1[C@@H](C)CN(c1ccc(C(=O)N(C)C)cn1)C2 [Example 126, (S)-5-(5-(Dimethylcarbamoyl)pyridin-2-yl)-N-(4-(3,3-dimethylureido)benzyl)-1-ethyl-7-methyl-4,5,6,7-tetrahydro-1H-pyrazolo[4,3-c]pyridine-3-carboxamide], the EC50 [1] is reported as 1 nM and the IC50 ([2]; Homo sapiens, 48 h) is reported as 5 nM.

For CC(C)n1nc(C(=O)NCc2ccc(NC(=O)N(C)C)cc2)c2c1[C@@H](C)CN(c1ncc(C(=O)N(C)C)cn1)C2 [Example 127], the EC50 [1] was 1 nM and the IC50 ([2]; Homo sapiens, 48 h) was 4 nM.

With CCn1nc(C(=O)NCc2ccc(NC(=O)N(C)C)cc2)c2c1[C@@H](C)CN(c1ccc(N3CCCC3=O)cn1)C2 [Example 129, (S)-N-(4-(3,3-dimethylureido)benzyl)-1-ethyl-7-methyl-5-(5-(2-oxopyrrolidin-1-yl)pyridin-2-yl)-4,5,6,7-tetrahydro-1H-pyrazolo[4,3-c]pyridine-3-carboxamide] the EC50 [1] was 1 nM and the IC50 ([2]; Homo sapiens, 48 h) was 9 nM.

CC(C)n1nc(C(=O)NCc2ccc(NC(=O)N3CCN(C)CC3)cc2)c2c1[C@@H](C)CN(c1ccc(C(=O)N(C)C)cc1)C2 [Example 132, (S)-5-(4-(Dimethylcarbamoyl)phenyl)-1-isopropyl-7-methyl-N-(4-(4-methylpiperazine-1-carboxamido)benzyl)-4,5,6,7-tetrahydro-1H-pyrazolo[4,3-c]pyridine-3-carboxamide] was tested, and the EC50 [1] was 0.2 nM and the IC50 ([2]; Homo sapiens, 48 h) was 3.6 nM.

For CC(C)n1nc(C(=O)NCc2ccc(NC(N)=O)cc2)c2c1CCN(c1ccc(C(=O)N(C)C)cn1)C2 [Example 133, 5-(5-(dimethylcarbamoyl)pyridin-2-yl)-1-isopropyl-N-(4-ureidobenzyl)-4,5,6,7-tetrahydro-1H-pyrazolo[4,3-c]pyridine-3-carboxamide], the EC50 [1] was 28 nM and the IC50 ([2]; Homo sapiens, 48 h) was 48 nM.

Work on CNC(=O)Nc1ccc(CNC(=O)c2nn(C(C)C)c3c2CN(c2ccc(C(=O)N(C)C)cn2)CC3)cc1 [Example 134, 5-(5-(dimethylcarbamoyl)pyridin-2-yl)-1-isopropyl-N-(4-(3-methylureido)benzyl)-4,5,6,7-tetrahydro-1H-pyrazolo[4,3-c]pyridine-3-carboxamide] yielded an EC50 [1] of 7 nM and an IC50 ([2]; Homo sapiens, 48 h) of 46 nM.

CNC(=O)c1ccc(N2CCc3c(c(C(=O)NCc4ccc(NC(=O)N(C)C)cc4)nn3C(C)C)C2)nc1 [Example 135, N-(4-(3,3-dimethylureido)benzyl)-1-isopropyl-5-(5-(methylcarbamoyl)pyridin-2-yl)-4,5,6,7-tetrahydro-1H-pyrazolo[4,3-c]pyridine-3-carboxamide] was tested, and the EC50 [1] was 136 nM and the IC50 ([2]; Homo sapiens, 48 h) was 1270 nM.

With CC(C)n1nc(C(=O)NCc2ccc(NC(=O)N3CCCC3)cc2)c2c1CCN(c1ccc(C(=O)N(C)C)cn1)C2 [Example 136, 5-(5-(Dimethylcarbamoyl)pyridin-2-yl)-1-isopropyl-N-(4-(pyrrolidine-1-carboxamido)benzyl)-4,5,6,7-tetrahydro-1H-pyrazolo[4,3-c]pyridine-3-carboxamide] the EC50 [1] was 12 nM and the IC50 [2] was 196 nM.
